Values quoted from earlier work in patent publication US20070032460A1, “Use of voacamine and related compounds in the treatment of malaria” (priority 2005, published 2007).

System: multi-drug resistant tumor cells
Conditions: cited from earlier work

## CC=C1CN(C)C2Cc3c([nH]c4ccccc34)C(c3cc4[nH]c5c(c4cc3OC)CCN3CC4CC(CC)C3C5(C(=O)OC)C4)CC1C2C(=O)OC (stereo not shown) [VOA, Voacamine]
  effect on vinblastine-mediated cytotoxicity: enhance vinblastine-mediated cytotbxicity
